In patent US11013709B2, “Highly purified eicosapentaenoic acid, as free fatty acid, reduces fecal calprotectin levels and prevents clinical relapse in ulcerative colitis patients” (S.L.A. PHARMA AG, priority 2017, dated 2021):

Legend:
[1] = cited from earlier work
fecal calprotectin (FC) = experiment: Double-blind, randomized, placebo-controlled study in UC patients: fecal calprotectin level (ELISA, Calprest); type: in vivo, human; conditions: over a six month period of administering highly purified EPA-FFA
Procedure: The present invention provides for a double-blind, randomized, placebo-controlled study with UC patients with fecal calprotectin level ≥150 μg/g and in stable therapy for at least the 3 previous months. Each subject, receives either 2 grams daily of EPA-FFA (2 dosages of 500 mg sustained-release capsules, twice a day) or placebo (2 dosages of 500 mg sustained-release capsules of capric and caprylic acids, twice daily) for a 6 month period. At baseline, the patients undergo a total colonoscopy. Fecal calprotectin levels, clinical and laboratory assessments are performed at baseline, 3 and 6 months or at the time of clinical relapse, which has been defined as the occurrence of symptoms accompanied by an increase in the partial Mayo score ≥2 and/or requiring a change in therapy. […]
The primary endpoint is the proportion of patients achieving a 100-point reduction (100 μg/g or greater) from baseline in FC level at 6 months. […] A combined endpoint consisting of the number of patients achieving the primary and secondary endpoints is also calculated. […]
A fecal sample from the first bowel movement in the morning is stored in a refrigerator at 2-8° C. for a maximum of 24 h before performing the analysis. Quantification of FC levels is carried out using a quantitative, enzyme-linked immunosorbent assay (Calprest; Eurospital, Trieste, Italy), according to the manufacturers' instructions. […]

[2] = Safety and tolerability in placebo-controlled trial of UC patients; type: in vivo, human; conditions: 60 patients with UC treated for 6 months
Procedure: The present invention provides for a double-blind, randomized, placebo-controlled study with UC patients with fecal calprotectin level ≥150 μg/g and in stable therapy for at least the 3 previous months. Each subject, receives either 2 grams daily of EPA-FFA (2 dosages of 500 mg sustained-release capsules, twice a day) or placebo (2 dosages of 500 mg sustained-release capsules of capric and caprylic acids, twice daily) for a 6 month period. At baseline, the patients undergo a total colonoscopy. Fecal calprotectin levels, clinical and laboratory assessments are performed at baseline, 3 and 6 months or at the time of clinical relapse, which has been defined as the occurrence of symptoms accompanied by an increase in the partial Mayo score ≥2 and/or requiring a change in therapy.
Patients who satisfied the inclusion criteria undergo blood tests, including C-reactive protein (CRP) (normal upper limit 5 mg/L) and a total colonoscopy with multiple biopsies at baseline. They are then randomized 1:1 to receive either 2 g daily of EPA-FFA (2×500 mg gastro-resistant sustained-release capsules, twice-daily) or 2 g of placebo (2×500 mg gastro-resistant sustained-release capsules of capric and caprylic acids that are triglycerides of the fractionated plant fatty acids, twice-daily) for a 6-month period. The entire study team are blinded to the treatment assignment.

## CC/C=C\C/C=C\C/C=C\C/C=C\C/C=C\CCCC(=O)O [EPA-FFA, eicosapentaenoic acid]
[1]; 2 g daily for 8 weeks, patients with IBD and healthy volunteers
  incorporation of EPA into plasma phospholipids and red blood cell membranes: consistently incorporated into plasma phospholipids and red blood cell membranes
[1]
  metabolic conversion: quickly converted into docosahexaenoic acid via docosapentaenoic acid
Fecal calprotectin (FC)
  reduction of FC: at least 100 μg/g
[2]
  serious adverse events: no serious adverse events
